# Test results reported in patent US20160158200A1, “Combinations of Hepatitis C Virus Inhibitors” (priority 2013, published 2016).
# Tested on: HCV genotype-1a variant with glutamine 30 changed to glutamate in the NS5A protein
# Assay type: cell-based
# Conditions: test compound titrated with BMS-790052 fixed at 200 nM; genotype 1a Q30E replicon
# In short: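 Synergy was assessed by combining several fixed amounts of an NS5A-targeting compound with a titration of the second compound of interest.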
compound,measurement,value
Cc1ccccc1CC(=O)N[C@H](c1ncc(-c2ccc(-c3ccc(-c4cnc([C@@H](NC(=O)Cc5ccccc5C)C(C)C)[nH]4)cc3)cc2)[nH]1)C(C)C [Compound S-39],Fold-Synergistic 1a (Q30E),>100 fold
COc1cccc(CC(=O)N[C@H](c2ncc(-c3ccc(-c4ccc(-c5cnc([C@@H](NC(=O)Cc6cccc(OC)c6)C(C)C)[nH]5)cc4)cc3)[nH]2)C(C)C)c1 [Compound S-40],Fold-Synergistic 1a (Q30E),>100 fold
Cc1cccc(CC(=O)N[C@H](c2ncc(-c3ccc(-c4ccc(-c5cnc([C@@H](NC(=O)Cc6cccc(C)c6)C(C)C)[nH]5)cc4)cc3)[nH]2)C(C)C)c1 [Compound S-41],Fold-Synergistic 1a (Q30E),>10 fold
Cc1ccc(CC(=O)N[C@H](c2ncc(-c3ccc(-c4ccc(-c5cnc([C@@H](NC(=O)Cc6ccc(C)cc6)C(C)C)[nH]5)cc4)cc3)[nH]2)C(C)C)cc1 [Compound S-42],Fold-Synergistic 1a (Q30E),>100 fold
CC(C)[C@H](NC(=O)/C=C/c1ccccc1)c1ncc(-c2ccc(-c3ccc(-c4cnc([C@@H](NC(=O)/C=C/c5ccccc5)C(C)C)[nH]4)cc3)cc2)[nH]1 [Compound S-43],Fold-Synergistic 1a (Q30E),>100 fold
C#CCCC(=O)N[C@H](c1ncc(-c2ccc(-c3ccc(-c4cnc([C@@H](NC(=O)CCC#C)C(C)C)[nH]4)cc3)cc2)[nH]1)C(C)C [Compound S-44],Fold-Synergistic 1a (Q30E),>100 fold
CCCCC(=O)N[C@H](c1ncc(-c2ccc(-c3ccc(-c4cnc([C@@H](NC(=O)CCCC)C(C)C)[nH]4)cc3)cc2)[nH]1)C(C)C [Compound S-45],Fold-Synergistic 1a (Q30E),>100 fold
CC(C)[C@H](NC(=O)c1ccccn1)c1ncc(-c2ccc(-c3ccc(-c4cnc([C@@H](NC(=O)c5ccccn5)C(C)C)[nH]4)cc3)cc2)[nH]1 [Compound S-46],Fold-Synergistic 1a (Q30E),>10 fold
CC(C)[C@H](NC(=O)C(C)(C)c1ccccc1)c1ncc(-c2ccc(-c3ccc(-c4cnc([C@@H](NC(=O)C(C)(C)c5ccccc5)C(C)C)[nH]4)cc3)cc2)[nH]1 [Compound S-47],Fold-Synergistic 1a (Q30E),>100 fold
Cc1cccc(C(=O)N[C@H](c2ncc(-c3ccc(-c4ccc(-c5cnc([C@@H](NC(=O)c6cccc(C)n6)C(C)C)[nH]5)cc4)cc3)[nH]2)C(C)C)n1 [Compound S-48],Fold-Synergistic 1a (Q30E),>100 fold
CC(=O)N[C@H](c1ncc(-c2ccc(-c3ccc(-c4cnc([C@@H](NC(C)=O)C(C)C)[nH]4)cc3)cc2)[nH]1)C(C)C [Compound S-49],Fold-Synergistic 1a (Q30E),>10 fold
CC(C)[C@H](NC(=O)CC1CC1)c1ncc(-c2ccc(-c3ccc(-c4cnc([C@@H](NC(=O)CC5CC5)C(C)C)[nH]4)cc3)cc2)[nH]1 [Compound S-50],Fold-Synergistic 1a (Q30E),>10 fold
COCCC(=O)N[C@H](c1ncc(-c2ccc(-c3ccc(-c4cnc([C@@H](NC(=O)CCOC)C(C)C)[nH]4)cc3)cc2)[nH]1)C(C)C [Compound S-51],Fold-Synergistic 1a (Q30E),>10 fold
COc1ncccc1C(=O)N[C@H](c1ncc(-c2ccc(-c3ccc(-c4cnc([C@@H](NC(=O)c5cccnc5OC)C(C)C)[nH]4)cc3)cc2)[nH]1)C(C)C [Compound S-52],Fold-Synergistic 1a (Q30E),>100 fold
CC(C)[C@H](NC(=O)CC(F)(F)F)c1ncc(-c2ccc(-c3ccc(-c4cnc([C@@H](NC(=O)CC(F)(F)F)C(C)C)[nH]4)cc3)cc2)[nH]1 [Compound S-53],Fold-Synergistic 1a (Q30E),>100 fold
CC(C)[C@H](NC(=O)C1(C#N)CC1)c1ncc(-c2ccc(-c3ccc(-c4cnc([C@@H](NC(=O)C5(C#N)CC5)C(C)C)[nH]4)cc3)cc2)[nH]1 [Compound S-54],Fold-Synergistic 1a (Q30E),>100 fold
CC(C)[C@H](NC(=O)c1cccc2c1OCC2)c1ncc(-c2ccc(-c3ccc(-c4cnc([C@@H](NC(=O)c5cccc6c5OCC6)C(C)C)[nH]4)cc3)cc2)[nH]1 [Compound S-55],Fold-Synergistic 1a (Q30E),>100 fold
CC(C)[C@H](NC(=O)CC1CCCCCC1)c1ncc(-c2ccc(-c3ccc(-c4cnc([C@@H](NC(=O)CC5CCCCCC5)C(C)C)[nH]4)cc3)cc2)[nH]1 [Compound S-56],Fold-Synergistic 1a (Q30E),>100 fold
CC(C)[C@H](NC(=O)CCCc1ccccc1)c1ncc(-c2ccc(-c3ccc(-c4cnc([C@@H](NC(=O)CCCc5ccccc5)C(C)C)[nH]4)cc3)cc2)[nH]1 [Compound S-57],Fold-Synergistic 1a (Q30E),>100 fold
CC(C)[C@H](NC(=O)CCCn1ccnc1)c1ncc(-c2ccc(-c3ccc(-c4cnc([C@@H](NC(=O)CCCn5ccnc5)C(C)C)[nH]4)cc3)cc2)[nH]1 [Compound S-58],Fold-Synergistic 1a (Q30E),<10 fold
CC(C)[C@H](NC(=O)CCN1CCCC1=O)c1ncc(-c2ccc(-c3ccc(-c4cnc([C@@H](NC(=O)CCN5CCCC5=O)C(C)C)[nH]4)cc3)cc2)[nH]1 [Compound S-59],Fold-Synergistic 1a (Q30E),<10 fold
CC(C)[C@H](NC(=O)Cc1cnccn1)c1ncc(-c2ccc(-c3ccc(-c4cnc([C@@H](NC(=O)Cc5cnccn5)C(C)C)[nH]4)cc3)cc2)[nH]1 [Compound S-60],Fold-Synergistic 1a (Q30E),<10 fold
CC(C)[C@H](NC(=O)c1cncnc1)c1ncc(-c2ccc(-c3ccc(-c4cnc([C@@H](NC(=O)c5cncnc5)C(C)C)[nH]4)cc3)cc2)[nH]1 [Compound S-61],Fold-Synergistic 1a (Q30E),>10 fold
CC(C)[C@H](NC(=O)CCN1CCOCC1)c1ncc(-c2ccc(-c3ccc(-c4cnc([C@@H](NC(=O)CCN5CCOCC5)C(C)C)[nH]4)cc3)cc2)[nH]1 [Compound S-62],Fold-Synergistic 1a (Q30E),<10 fold
CC(C)[C@H](NC(=O)c1cc(F)ccc1F)c1ncc(-c2ccc(-c3ccc(-c4cnc([C@@H](NC(=O)c5cc(F)ccc5F)C(C)C)[nH]4)cc3)cc2)[nH]1 [Compound S-63],Fold-Synergistic 1a (Q30E),>100 fold
CC(C)[C@H](NC(=O)c1c(F)cccc1F)c1ncc(-c2ccc(-c3ccc(-c4cnc([C@@H](NC(=O)c5c(F)cccc5F)C(C)C)[nH]4)cc3)cc2)[nH]1 [Compound S-64],Fold-Synergistic 1a (Q30E),>100 fold
CC(C)[C@H](NC(=O)c1ccccc1Cl)c1ncc(-c2ccc(-c3ccc(-c4cnc([C@@H](NC(=O)c5ccccc5Cl)C(C)C)[nH]4)cc3)cc2)[nH]1 [Compound S-65],Fold-Synergistic 1a (Q30E),>100 fold
CC(C)[C@H](NC(=O)c1cccc(Cl)c1Cl)c1ncc(-c2ccc(-c3ccc(-c4cnc([C@@H](NC(=O)c5cccc(Cl)c5Cl)C(C)C)[nH]4)cc3)cc2)[nH]1 [Compound S-66],Fold-Synergistic 1a (Q30E),>100 fold
CC(C)[C@H](NC(=O)c1cc(Cl)ccc1Cl)c1ncc(-c2ccc(-c3ccc(-c4cnc([C@@H](NC(=O)c5cc(Cl)ccc5Cl)C(C)C)[nH]4)cc3)cc2)[nH]1 [Compound S-67],Fold-Synergistic 1a (Q30E),>100 fold
COc1ccccc1C(=O)N[C@H](c1ncc(-c2ccc(-c3ccc(-c4cnc([C@@H](NC(=O)c5ccccc5OC)C(C)C)[nH]4)cc3)cc2)[nH]1)C(C)C [Compound S-68],Fold-Synergistic 1a (Q30E),>100 fold
CC(C)[C@H](NC(=O)c1ccccc1C(F)(F)F)c1ncc(-c2ccc(-c3ccc(-c4cnc([C@@H](NC(=O)c5ccccc5C(F)(F)F)C(C)C)[nH]4)cc3)cc2)[nH]1 [Compound S-69],Fold-Synergistic 1a (Q30E),>100 fold
